Data reported in US20060188913A1, “Methods and products for enhancing immune responses using imidazoquinoline compounds” (University of Iowa Research Foundation, priority 2001, published 2006).

Key:
[1] = target: T1, hTLR8 (Homo sapiens, UniProt Q9NR97); experiment: IL-8 production in 293 fibroblasts transiently expressing hTLR8; format: cell-based; conditions: CpG-ODN 2 μM, LPS 100 ng/ml
T1 construct: plasmids (pcDNA3.1 constructs) coding for full length hTLR2, hTLR7, hTLR8 and hTLR9; expressed in transfected cells; host or cells: 293T cells
T1 sequence (Q9NR97 27-1041): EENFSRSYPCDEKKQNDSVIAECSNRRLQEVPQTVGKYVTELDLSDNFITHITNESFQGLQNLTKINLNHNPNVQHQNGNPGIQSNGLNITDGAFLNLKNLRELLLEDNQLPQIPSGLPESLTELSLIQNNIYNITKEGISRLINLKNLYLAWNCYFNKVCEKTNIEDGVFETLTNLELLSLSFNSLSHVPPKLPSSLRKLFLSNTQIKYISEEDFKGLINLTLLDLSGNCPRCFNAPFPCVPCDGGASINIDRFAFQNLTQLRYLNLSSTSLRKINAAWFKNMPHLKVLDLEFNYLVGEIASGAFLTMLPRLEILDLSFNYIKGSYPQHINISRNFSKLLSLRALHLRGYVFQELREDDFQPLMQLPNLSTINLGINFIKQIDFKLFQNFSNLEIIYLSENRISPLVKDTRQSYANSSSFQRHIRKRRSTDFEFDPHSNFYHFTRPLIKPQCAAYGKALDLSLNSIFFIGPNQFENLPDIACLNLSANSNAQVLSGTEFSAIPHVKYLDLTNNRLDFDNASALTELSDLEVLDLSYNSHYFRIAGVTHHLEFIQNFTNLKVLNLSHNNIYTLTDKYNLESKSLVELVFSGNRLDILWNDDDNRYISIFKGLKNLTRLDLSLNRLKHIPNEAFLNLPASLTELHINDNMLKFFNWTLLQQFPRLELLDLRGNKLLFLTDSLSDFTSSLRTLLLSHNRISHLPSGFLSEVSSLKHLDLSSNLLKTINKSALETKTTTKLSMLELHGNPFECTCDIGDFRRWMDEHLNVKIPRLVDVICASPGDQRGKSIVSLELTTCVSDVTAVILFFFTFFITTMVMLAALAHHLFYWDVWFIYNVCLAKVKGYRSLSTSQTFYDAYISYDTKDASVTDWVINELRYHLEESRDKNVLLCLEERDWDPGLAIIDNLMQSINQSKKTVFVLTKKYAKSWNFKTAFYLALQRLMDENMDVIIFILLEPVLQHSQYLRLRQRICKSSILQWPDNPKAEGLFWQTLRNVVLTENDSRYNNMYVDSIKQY
Experimental: (§1) The cloned human TLR7 and human TLR8 cDNA were cloned into the expression vector pCDNA3. 1 (−) from Invitrogen using the NotI site. Utilizing a “gain of function” assay, hTLR7 and hTLR8 expression vectors were transiently expressed in human 293 fibroblasts (ATCC, CRL-1573) using the calcium phosphate method. Activation was monitored by IL-8 production after stimulus with CpG-ODN (2006 or 1668, 2 μM) or LPS (100 ng/ml).

[2] = target: T2, hTLR7 (Homo sapiens, UniProt Q9NYK1); experiment: IL-8 production in 293 fibroblasts transiently expressing hTLR7; format: cell-based; conditions: CpG-ODN 2 μM, LPS 100 ng/ml
T2 construct: plasmids (pcDNA3.1 constructs) coding for full length hTLR2, hTLR7, hTLR8 and hTLR9; expressed in transfected cells; host or cells: 293T cells
T2 sequence (Q9NYK1 27-1049): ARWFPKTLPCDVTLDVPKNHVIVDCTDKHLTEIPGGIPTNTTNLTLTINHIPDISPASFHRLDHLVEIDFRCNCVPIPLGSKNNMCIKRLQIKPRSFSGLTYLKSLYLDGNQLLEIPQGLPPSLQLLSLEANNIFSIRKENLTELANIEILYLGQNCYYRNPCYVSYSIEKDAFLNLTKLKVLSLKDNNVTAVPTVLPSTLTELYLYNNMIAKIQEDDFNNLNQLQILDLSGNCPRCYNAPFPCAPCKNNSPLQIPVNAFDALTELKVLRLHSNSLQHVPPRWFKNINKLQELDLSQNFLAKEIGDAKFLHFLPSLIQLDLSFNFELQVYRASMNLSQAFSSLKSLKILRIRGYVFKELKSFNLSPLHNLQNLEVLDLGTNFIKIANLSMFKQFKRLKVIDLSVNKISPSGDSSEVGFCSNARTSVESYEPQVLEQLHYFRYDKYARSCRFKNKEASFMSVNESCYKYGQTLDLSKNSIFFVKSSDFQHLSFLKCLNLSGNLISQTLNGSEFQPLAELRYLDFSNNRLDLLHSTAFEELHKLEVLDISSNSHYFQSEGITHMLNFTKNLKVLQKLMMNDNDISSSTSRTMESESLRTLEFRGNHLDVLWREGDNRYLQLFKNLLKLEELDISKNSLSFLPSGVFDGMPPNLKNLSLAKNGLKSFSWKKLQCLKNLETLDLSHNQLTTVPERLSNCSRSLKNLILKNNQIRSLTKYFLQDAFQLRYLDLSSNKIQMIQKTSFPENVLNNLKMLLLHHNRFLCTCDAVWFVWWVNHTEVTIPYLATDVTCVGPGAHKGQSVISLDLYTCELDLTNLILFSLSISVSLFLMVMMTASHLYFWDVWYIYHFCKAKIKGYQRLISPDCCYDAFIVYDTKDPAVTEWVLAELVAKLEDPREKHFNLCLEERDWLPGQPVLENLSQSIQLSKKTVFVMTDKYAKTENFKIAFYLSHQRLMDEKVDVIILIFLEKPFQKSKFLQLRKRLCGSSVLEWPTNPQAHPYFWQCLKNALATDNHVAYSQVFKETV
Experimental: as §1

[3] = target: T2, hTLR7; experiment: NF-kappa B luciferase activation in 293T cells transiently transfected with hTLR7; format: cell-based; conditions: hTLR7-transfected 293T cells
Experimental: (§2) Cells used for transfections were 293T (human embryo kidney cells, T-antigen transfected) or 293-TLR9-Luc (stable transfectants, human embryo kidney cells expressing the human TLR9 receptor and containing a genomic NF-kappa B-luciferase cassette).
(§3) Transfections were performed in six-well plates. Cells were plated the day before transfection at 4×10^5/well in DMEM+10% FCS.
(§4) Constructs: TLR cDNAs were cloned into pcDNA3.1. NF-kappa B activation was measured by using an 5× NF-kappa B-Luciferase construct (Stratagene). Transfection efficiency was determined by using a beta-galactosidase (beta-gal) reporter construct (p beta-Gal-Control, Clontech).
(§5) Stimulation was performed 24 h after transfection. Medium of the cells was reduced to 1 ml (without medium change) and cells were stimulated with indicated amounts of R-848, LPS, ODN 8954, 2006 and IL-1 beta for 16 h.
(§6) Cell extracts were prepared by lysing the cells in 100 μl reporter lysis buffer using the freeze-thaw method. NF-kappa B stimulation was measured through luciferase activity (Promega). All data were normalized for beta-gal expression. Stimulation indices were calculated in reference to luciferase activity of medium without addition of ODN.
(§7) 293T cells, stably transfected with a NF-kappa B-luciferase reporter construct, were transiently transfected with plasmids (pcDNA3.1 constructs) coding for full length hTLR2, hTLR7, hTLR8 and hTLR9. […]

[4] = target: T1, hTLR8; experiment: NF-kappa B luciferase activation in 293T cells transiently transfected with hTLR8; format: cell-based; conditions: hTLR8-transfected 293T cells
Experimental: as §2, §3, §4, §5, §6, §7

[5] = test system: NF-kappa B luciferase reporter gene; experiment: NF-kappa B luciferase reporter in transfected 293T cells, TLR-independent positive control; format: cell-based, human; conditions: FIG. 2A
Experimental: as §2, §5, §6
293T cells, stably transfected with a NF-kappa B-luciferase reporter construct, were transiently transfected with plasmids (pcDNA3.1 constructs) coding for full length hTLR2, hTLR7, hTLR8 and hTLR9. All transfections were normalized to beta-galactosidase activity. Twenty-four hours following transfection, cells were stimulated with R-848, LPS, CpG ODN 8954 (5′ […] 3′, SEQ ID NO:4), CpG ODN 2006, or IL-1 and then assayed for luciferase activity 16 h after stimulation. Each experiment was done at least twice with similar results.

[6] = test system: human PBMC; experiment: IFN-gamma secretion by human PBMC (ELISA); format: cell-based; conditions: 48 hours, compared to R-848, not shown
Experimental: (§8) This experiment investigated the induction of the Th1 cytokine IFN-gamma as well as the Th1-related chemokine IP-10 (IFN-gamma inducible protein). Unfractionated human PBMC from three donors were incubated for 48 hours in the presence of varying concentrations of R-848 (0.01-1.0 μg/ml), varying concentrations of CpG ODN 2006 (0.2-3.0 μg/ml), varying concentrations of negative control ODN 5177 (0.2-3.0 μg/ml), SEB (50 ng/ml), or media alone, and then the concentrations of IP-10 and IFN-gamma in the supernatant were measured by ELISA.

[7] = test system: human PBMC; experiment: IP-10 secretion by human PBMC (ELISA); format: cell-based; conditions: 48 hours, ODN 0.2-3.0 μg/ml versus R-848 0.01-1.0 μg/ml, FIG. 6A
Experimental: as §8
In FIG. 6B, the combined effects of R-848 and CpG ODN (e.g., #2006) on IP-10 secretion are shown. Human PBMCs from three different donors were incubated for 48 hours with the indicated concentrations of ODNs and R-848, either individually or together. Supernatants were harvested and IP-10 was measured by ELISA. The data represent mean cytokine amounts.

[8] = target: T3, hTLR2 (Homo sapiens, UniProt O60603); experiment: NF-kappa B luciferase activation in 293T cells transfected with hTLR2; format: cell-based
T3 construct: plasmids (pcDNA3.1 constructs) coding for full length hTLR2, hTLR7, hTLR8 and hTLR9; expressed in transfected cells; host or cells: 293T cells carrying an NF-kappa B-luciferase reporter
T3 sequence (O60603 21-784): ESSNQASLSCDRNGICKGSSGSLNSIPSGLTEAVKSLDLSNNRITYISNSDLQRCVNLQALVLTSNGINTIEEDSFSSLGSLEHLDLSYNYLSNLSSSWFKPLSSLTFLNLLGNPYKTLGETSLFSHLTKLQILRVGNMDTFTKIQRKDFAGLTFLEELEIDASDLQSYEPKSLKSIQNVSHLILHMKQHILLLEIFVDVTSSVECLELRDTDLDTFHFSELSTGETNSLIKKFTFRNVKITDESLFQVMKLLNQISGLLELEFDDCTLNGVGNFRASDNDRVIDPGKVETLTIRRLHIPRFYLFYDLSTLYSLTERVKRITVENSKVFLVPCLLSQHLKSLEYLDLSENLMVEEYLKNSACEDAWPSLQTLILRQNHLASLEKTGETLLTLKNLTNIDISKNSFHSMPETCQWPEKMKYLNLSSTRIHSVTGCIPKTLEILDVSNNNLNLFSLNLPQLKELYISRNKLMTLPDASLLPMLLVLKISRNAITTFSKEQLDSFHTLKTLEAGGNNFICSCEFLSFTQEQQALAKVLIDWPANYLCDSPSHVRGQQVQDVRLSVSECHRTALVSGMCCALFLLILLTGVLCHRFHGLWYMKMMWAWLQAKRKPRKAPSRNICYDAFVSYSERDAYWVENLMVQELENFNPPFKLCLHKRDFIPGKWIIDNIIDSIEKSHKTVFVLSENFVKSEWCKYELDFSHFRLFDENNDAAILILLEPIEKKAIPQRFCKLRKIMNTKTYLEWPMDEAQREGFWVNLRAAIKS
Experimental: as §2, §3, §4, §5, §6, §7

Substance	activation monitored by IL-8 production [1]	activation monitored by IL-8 production [2]	NF-kappa B activation through hTLR7 (in words) [3]	NF-kappa B activation through hTLR8 (in words) [4]	further results
1668: CpG-ODN TCCATGACGTTCCTGATGCT, SEQ ID NO:12 (listed as DNA, chemistry not fully specified) [compound 1668]	None of the stimuli used activated	None of the stimuli used activated	–	–	–
CpG ODN 8954: CpG ODN 5′ GGGGACGACGTCGTGGGGGGG 3′, SEQ ID NO:4 (listed as DNA, chemistry not fully specified)	–	–	Neither LPS nor the CpG ODN 8954 appeared to activate	Neither LPS nor the CpG ODN 8954 appeared to activate	–
IL-1: cytokine used as positive control for NF-kappa B activation	–	–	–	–	activation of NF-kappa B luciferase reporter gene (in words) [5]: activated the NF-kappa B luciferase reporter gene in a TLR-independent manner
ODN 5177: negative control ODN 5′ TCCGCCTGTGACATGCATT 3′; SEQ ID NO:5 (listed as DNA, chemistry not fully specified)	–	–	–	–	IFN-gamma induction [6]: The same result was obtained; IP-10 induction [7]: but not the negative control ODN 5177 induced similar amounts of IP-10
lipopolysaccharide [LPS]	None of the stimuli used activated	None of the stimuli used activated	Neither LPS nor the CpG ODN 8954 appeared to activate	Neither LPS nor the CpG ODN 8954 appeared to activate	NF-kappa B activation through hTLR2 (in words) [8]: activated by LPS
